Source: US8835617B2, “Polynucleotides encoding a human TRIM-Cyp fusion polypeptide, compositions thereof, and methods of using same” (priority 2008, dated 2014)

Legend:
CypA-CA interaction = conditions: CsA 2.5 μM, CRFK; DEBIO-025 in Jurkat
Protocol: All chemicals were obtained from Sigma unless otherwise noted. Puromycin was used at 1 μM. […] Arsenic trioxide (As2O3) was made at 100 mM in 1N sodium hydroxide (NaOH) and then further diluted to 1 mM in phosphate buffered saline (PBS). pH was adjusted to 7.5 with hydrochloric acid and stored at 4° C.

T5-mediated restriction = experiment: Disruption of T5Cyp-mediated HIV-1 restriction by arsenic trioxide in CRFK cells; assay type: cell-based; conditions: increasing amounts
Protocol: This drug was previously shown to inhibit T5-mediated restriction (Sebastian et al., 2006).
Puromycin was used at 1 μM.

Molecule | effect on HIV-1 restriction by AoT5Cyp and hT5Cyp (CypA-CA interaction) | effect on AoT5Cyp and hT5Cyp restriction activity (T5-mediated restriction)
C/C=C/C[C@@H](C)[C@@H](O)[C@H]1C(=O)N[C@@H](CC)C(=O)N(C)[C@H](C)C(=O)N(CC)[C@@H](C(C)C)C(=O)N[C@@H](C(C)C)C(=O)N(C)[C@@H](CC(C)C)C(=O)N[C@@H](C)C(=O)N[C@H](C)C(=O)N(C)[C@@H](CC(C)C)C(=O)N(C)[C@@H](CC(C)C)C(=O)N(C)[C@@H](C(C)C)C(=O)N1C [DEBIO-025] | Equivalent results | –
arsenic trioxide [As2O3] | – | blocked to the same extent
